Patent US6338963B1, “Use of carbon monoxide dependent guanylyl cyclase modifiers to stimulate neuritogenesis” (NeoTherapeutics, Inc., priority 1994, dated 2002)

How the values were obtained:
acetylcholine receptors = type: binding, mouse
Swiss Webster mice = assay: Locomotor activity (spontaneous movements), Swiss Webster mice; type: in vivo
Description: The activity of AIT-082 was compared with tacrine (THA) and physostigmine (PHY), experimental anticholinesterase agents which enhance memory in animals. The drugs were also evaluated for their effects on locomotor activity. In the win-shift memory paradigm, AIT-082 was evaluated for its ability to induce tolerance after 18 days of drug administration. In addition AIT-082 was tested for its activity to modify learning in a modified T-maze discrimination task.
The drugs used in this example are 4-((3-(1,6-dihydro-6-oxo-9-purin-9-yl)-1-oxopropyl)amino) benzoic acid (AIT-082), as an exemplary potassium salt, tacrine hydrochloride (tetrahydroaminoacridine, THA, Sigma Chemical Co., St. Louis, Mo.), and physostigmine, hemisulfate salt (PHY, Sigma Chemical Co., St. Louis, Mo.). The drugs were dissolved in saline and prepared fresh daily. All injections were made at a volume of 0.1 ml/10 grams body weight. When testing drug effects, intraperitoneal (i.p.) injections of AIT-082 or THA were made one hour prior to the start of testing. Due to its shorter duration of action, PHY was injected 30 minutes prior to testing. Control subjects receive a similar injection of saline (vehicle).

[1] = tested on: cultured neurons from rat cerebral cortex; assay: NMDA-induced toxicity in cultured rat cortical neurons, astrocyte conditioned medium; type: cell-based; conditions: CM from astrocytes treated 6 hours with AIT-082
Description: In these experiments, cultured neurons were prepared from rat cerebral cortex. In these cultures the NMDA pulse (100 μM for 10 min) provoked about 80% neuronal death (measured by Trypan blue cell staining or LDH activity). Separately, cultured astrocytes were treated for 6 hours with AIT-082. Then, the medium containing the drug was replaced with fresh medium without the drug and the astrocyte cultures were maintained in this medium for the next 24 hours. This medium represented the CM and was added to neurons soon after the toxic pulse with NMDA. The addition of CM partly counteracted the toxic effects caused by NMDA, reducing the neuronal damage by about 50%. If the medium was boiled for 20 min at 100° C. prior to addition to NMDA-damaged neurons, it completely lost the protective activity. […] To verify whether the neuroprotection caused by AIT-082 was ascribable to the production of TGFβ2 or NGF, antibodies to TGFβ2 or to NGF (100 ng/ml) were added together with CM.
Conversely, when DPCPX (100 nm) was added to astrocyte cultures together with AIT-082, the neuroprotective effect of the resulting CM deriving from the culture of the astrocytes with AIT-082 was reduced by only 20%, as compared to the neuroprotective effect of CM derived from astrocytes exposed to AIT-082 alone (assumed as equal to 100%).

rat caudate nuclei = assay: GAD activity in rat caudate nuclei damaged by NMDA; type: in vivo
Description: The effect of AIT-082 on in vivo neuroprotection was also assessed by assaying for glutamic acid decarboxylase (GAD) activity.
GAD activity in rat caudate nuclei was damaged in vivo by NMDA. Increasing amounts of NMDA (25-300 nmoles) were unilaterally infused into caudate nuclei of rats. Eight to 10 days after the injections, glutarnic acid decarboxylase (GAD) activity was assayed, as an index of the loss of GABA-ergic neurons. NMDA produced a dose-dependent lesion, which at its maximal extension caused a reduction of GAD activity by 50% in comparison with that of contralateral sham-operated nuclei (control). […] The necrotic areas are in white, whereas the shadow is the surrounding edema GAD activity was evaluated by measuring the ex novo formation of [^3H]GABA from dissected striata exposed to 1 μCi of [^3H]glutamate for 1 hour at 37° C. GABA was assayed by HPLC with fluorescence detection and the [3H]label associated with GABA was measured.

[2] = tested on: basal forebrain cholinergic neurons; assay: Fimbria-fornix transection, ChAT-positive medial septum neurons; type: in vivo, F344 rats; conditions: AIT-082 30 mg/kg IP every three days, 14 days post-lesion
Description: This model is the gold standard for examining the effects of neurotrophic factors, neurotrophic factor-releasing agents, and neurotrophic factor analogues in the central nervous system (CNS). Fimbria-fornix transections (FFT) are performed to induce the degeneration of basal forebrain cholinergic (BFC) neurons. […] The infusion of nerve growth factor completely prevents the degeneration of these neurons. In this experiment, animals received AIT-082 to determine whether it would prevent lesion-induced degeneration of BFC neurons.
Adult female F344 rats received an intraperitoneal (IP) injection of AIT-082 (30 mg/kg) or saline one hour prior to receiving a unilateral fimbria-fornix transection (FFT) (n=6 per group). All animals survived the surgery and continued to receive IP injections of AIT-082 or vehicle every three days following the lesion. All animals were perfused with fixative at 14 days post-lesion and brains were sectioned and processed for choline acetyltransferase (ChAT) and p75 immunoreactivity. For analysis, three sections, 240 μm apart, were taken at the level of the medial septum and ChAT positive cells were counted both ipsilateral and contralateral to the lesion.
For the results of FIG. 44, ChAT-positive cells were counted in three sections, 240 μm apart. Data was expressed as a ratio of cell counts ipsilateral to the lesion divided by counts contralateral to the lesion. […]

BDNF = assay: Summary of effects on growth factor mRNA and protein (Table R): BDNF; design: key: ± = mRNA; + = protein; nt = not tested
Text: (§1) The constellation of effects of AIT-082 on production of mRNA encoding growth factors and on production of growth factor proteins is shown in Table R. The results summarized in […] show both transcriptional and translational effects on growth factors that are in the categories of neurotrophins, pleiotrophins, members of the S100 family of EF hand calcium binding proteins, and members of the TGFβ superfamily. As indicated, effects have been shown at both the mRNA (transcriptional) and protein (translational) levels.

GDNF = assay: Summary of effects on growth factor mRNA and protein (Table R): GDNF; design: key: ± = mRNA; + = protein; nt = not tested
Text: as §1

O=C(CCn1cnc2c(=O)[nH]cnc21)Nc1ccc(C(=O)O)cc1 [AIT-082, N-4-carboxyphenyl-3-(6-oxohydropurin-9-yl)propanamide]
interference with the binding of QNB (acetylcholine receptors): no effect | Locomotor Activity (Swiss Webster mice; AIT-082 0.5 mg/kg): 323 Spontaneous movements per hour | Locomotor Activity (Swiss Webster mice; AIT-082 30.0 mg/kg): 378 Spontaneous movements per hour | reduction of neuronal damage caused by NMDA [1]: about 50% | GAD activity in damaged striata (rat caudate nuclei; daily intraperitoneal injection for seven days, 200 mnoles NMDA): nearly completely preserved GAD activity | loss of GAD activity (rat caudate nuclei; local, 300 mnoles AIT-082 coinfused with 200 nmoles NMDA): almost completely prevented the loss of GAD activity | lesion-induced loss of ChAT-labeled cells in the BFC region [2]: did not reduce lesion-induced loss of ChAT-labeled cells | BDNF, effect on mRNA/protein production (BDNF; Aged Brain): + | BDNF, effect on mRNA/protein production (BDNF; Lesioned Spinal Cord): ± | BDNF, effect on mRNA/protein production (BDNF; Normal Brain): + | BDNF, effect on mRNA/protein production (BDNF; Normal Spinal Cord): + | GDNF, effect on mRNA/protein production (GDNF; Aged Brain): + | GDNF, effect on mRNA/protein production (GDNF; Lesioned Brain): + | GDNF, effect on mRNA/protein production (GDNF; Normal Brain): + | GDNF, effect on mRNA/protein production (GDNF; Normal Spinal Cord): +
